Literature values as cited in paper PMC9762682, “Tocotrienols: Exciting Biological and Pharmacological Properties of Tocotrienols and Naturally Occurring Compounds, Part II” (Annals of clinical case reports, 2022).
Read-outs that look alike come from different tables or passages of the source. Marks after values point to notes of the source that are not given here.

Legend:
[1] = parameters: method as in ref 14 = [14]; PMID 27493840; doi:10.4172/2155-9880.1000434; 14. Qureshi AA , Khan DA , Saleem S , Silswal N , Trias AM , Tan B , Pharmacokinetics and bioavailability of Annatto δ-tocotrienol in healthy fed subjects . J Clin Exp Cardiol . 2015; 6 : 11 . 10.417; settings: for Elimination of Half-life time (t1/2) / Elimination rate constant (ke) / Plasma Peak Concentration (Cmax) / Time to achieve plasma peak (Tmax): healthy fed subjects
[2] = parameters: method as in ref 16 = [16]; PMID 27493840; doi:10.4172/2155-9880.1000434; 16. Qureshi AA , Khan DA , Silswal N , Saleem S , Qureshi N . Evaluation of pharmacokinetics and bioavailability of higher doses of δ-tocotrienol in healthy fed humans . J Clin Exp Cardiol . 2016; 7
[3] = test system: α-Tocopherol Transfer Protein (α-TTP); parameters: method as in PMID 11271854, PMID 8632210
[4] = plasma tocol after single 125 mg δ-tocotrienol dose
[5] = plasma tocol after single 250 mg δ-tocotrienol dose
[6] = plasma tocol after single 500 mg δ-tocotrienol dose
[7] = plasma tocol after single dose 750 mg δ-tocotrienol
[8] = plasma tocol after single dose 1000 mg δ-tocotrienol

Compound: CC(C)=CCC/C(C)=C/CC/C(C)=C/CC[C@]1(C)CCc2c(C)c(O)c(C)c(C)c2O1 [α-Tocotrienol]
- time of appearance in the plasma ([1]; after δ-tocotrienol administration to well-fed subjects): > 2 h
- Elimination of Half-life time (t1/2) [1, 4]: 2.62 ± 0.81^a h
- Elimination rate constant (ke) [1, 4]: 1.234 ± 0.211^a h-1
- Plasma Peak Concentration (Cmax) [1, 4]: 139.91 ± 11.03^a ng/mL
- Time to achieve plasma peak (Tmax) [1, 4]: 2.73 ± 0.65 h
- Elimination of Half-life time (t1/2) [1, 5]: 2.89 ± 0.84^a h
- Elimination rate constant (ke) [1, 5]: 0.201 ± 0.050^b h-1
- Plasma Peak Concentration (Cmax) [1, 5]: 204.91 ± 9.47^b ng/mL
- Time to achieve plasma peak (Tmax) [1, 5]: 3.00 h
- Elimination of Half-life time (t1/2) [1, 6]: 3.71 ± 0.29^b h
- Elimination rate constant (ke) [1, 6]: 0.214 ± 0.009^b h-1
- Plasma Peak Concentration (Cmax) [1, 6]: 290.09 ± 9.84^c ng/mL
- Time to achieve plasma peak (Tmax) [1, 6]: 3.00 h
- plasma tocol level ([2]; 0 Hr., single dose 750 mg δ-tocotrienol): 241 ± 16 ng/mL
- plasma tocol level ([2]; 0 Hr., single dose 1000 mg δ-tocotrienol): 292 ± 39 ng/mL
- plasma tocol level ([2]; 1 hr., single dose 750 mg δ-tocotrienol): 268 ± 13 ng/mL
- plasma tocol level ([2]; 1 hr., single dose 1000 mg δ-tocotrienol): 653 ± 42 ng/mL
- plasma tocol level ([2]; 2 hr., single dose 750 mg δ-tocotrienol): 278 ± 7 ng/mL
- plasma tocol level ([2]; 2 hr., single dose 1000 mg δ-tocotrienol): 807 ± 49 ng/mL
- plasma tocol level ([2]; 4 hr., single dose 750 mg δ-tocotrienol): 293 ± 11 ng/mL
- plasma tocol level ([2]; 4 hr., single dose 1000 mg δ-tocotrienol): 1125 ± 35 ng/mL
- plasma tocol level ([2]; 6 hr., single dose 750 mg δ-tocotrienol): 223 ± 5 ng/mL
- plasma tocol level ([2]; 6 hr., single dose 1000 mg δ-tocotrienol): 375 ± 49 ng/mL
- plasma tocol level ([2]; 8 hr., single dose 750 mg δ-tocotrienol): 86 ± 16 ng/mL
- plasma tocol level ([2]; 8 hr., single dose 1000 mg δ-tocotrienol): 309 ± 17 ng/mL
- Elimination of Half-life time (t1/2) [2, 7]: 2.21 ± 0.18^a h
- Elimination rate constant (ke) [2, 7]: 0.315 ± 0.188^a h-1
- Elimination of Half-life time (t1/2) [2, 8]: 2.15 ± 0.13^b h
- Time to achieve plasma peak (Tmax) [2, 8]: 4.00^a h
- Total tocols (sum of 0-8 h) ([2]; single dose 750 mg δ-tocotrienol): 1389 ng/mL
- Total tocols (sum of 0-8 h) ([2]; single dose 1000 mg δ-tocotrienol): 3561 ng/mL
- α-TTP mediated secretion from the liver into the circulatory system (affinity with α-TTP) [3]: 12%
